Values quoted from earlier work, collected in US6989139B2, “Matrix metalloproteinase inhibitors” (Bristol-Myers Squibb Pharma Company, priority 2000, dated 2006).

Legend:
MMP's = details: literature statement
[1] = system: MMP-2, MMP-9 vs MMP-1, MMP-3; details: Lovejoy et al 1999

| Molecule | MMP inhibitory activity (MMP's) | selectivity for MMP-2 and MMP-9 over MMP-1 [1] |
| --- | --- | --- |
| 2-[2-({5-[N-(5-(N-hydroxycarbamoyl)(5R)-5-{3-[4-(3,4-dimethoxyphenoxy)phenyl]-3-methyl-2-oxopyrrolidinyl}pentyl)carbamoyl](2-pyridyl)}amino)(1Z)-2-azavinyl]benzenesulfonic Acid [Example 15] | good activity |  |
| 2-[(2-{[(N-{[4-({[7-(N-hydroxycarbamoyl)(3S,6R,7S)-4-aza-6-(2-methylpropyl)-11-oxa-5-oxobicyclo[10.2.2)hexadeca-1(15),12(16),13-trien-3-yl]-carbonylamino}methyl)phenyl]methyl}carbamoyl)methyl](carboxymeth yl)amino}ethyl){2-[bis(carboxymethyl)amino]ethyl}amino]acetic Acid [Example 8] | potent inhibition |  |
| CC(C)C[C@H]1C(=O)N[C@H](C(=O)NCc2ccc(CNC(=O)C(CS(=O)(=O)O)NC(=O)CN3CCN(CC(=O)O)CCN(CC(=O)O)CCN(CC(=O)O)CC3)cc2)Cc2ccc(cc2)OCCC[C@@H]1C(=O)NO (stereo partly drawn) [Example 6, 2-[7-({N-[1-(N-{[4-({[7-(N-hydroxycarbamoyl)(3S,6R,7S)-4-aza-6-(2-methylpropyl)-11-oxa-5-oxobicyclo[10.2.2]hexadeca-1(15),12(16),13-trien-3-yl]-carbonylamino}methyl)phenyl]methyl}carbamoyl)-2-sulfoethyl]carbamoyl}methyl)-1,4,7,10-tetraaza-4,10-bis(carboxymethyl)cyclododecyl]acetic Acid] | nanomolar activity |  |
| O=C(NO)C1(CS(=O)(=O)c2ccc(Oc3ccc(Cl)cc3)cc2)CCOCC1 [Example 13] |  | selectivity for MMP-2 and MMP-9 over MMP-1 |
